Measurements published in the supplement of paper PMC10331698.
± gives the standard deviation of the averaged measurements.

Columns and labels:
Experiment in all cases: level (log10 ratio to DMSO vehicle control); higher = higher biomarker level / cell amount than vehicle control
Conditions in all cases: in DMSO
[1] = compound: CC(C)(C)C(=O)CC(=O)C(F)(F)C(F)(F)C(F)(F)F [(Heptafluorobutanoyl)pivaloylmethane]
Protocol: (§1)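 BioMAP Diversity Plus panel of 12 human primary cell co-culture systems (3C, 4H, LPS, SAg, BT, BF4T, BE3C, CASM3C, HDF3CGF, KF3CT, MyoF, Mphg). Compounds were added 1 h before stimulation and left for 24 h (MyoF 48 h; BT 72 h for soluble read-outs or 6 d for IgG). Biomarkers were read by ELISA, cytotoxicity by SRB, PBMC viability and proliferation by Alamar Blue. Each well value was divided by the mean of 8 DMSO control wells on the same plate and log10 transformed; duplicate blinded samples were tested at 4 concentrations.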

[2] = compound: FC(F)(F)C(F)(F)C(F)(F)C(F)(F)C(F)(F)C(F)(F)C(F)(F)CCI [1-Iodo-1H,1H,2H,2H-perfluorononane]
Protocol: as §1

Perfluorooctanamide = compound: NC(=O)C(F)(F)C(F)(F)C(F)(F)C(F)(F)C(F)(F)C(F)(F)C(F)(F)F [Perfluorooctanamide]
Protocol: as §1

[3] = compound: O=C(O)C(F)(F)C(F)(F)C(F)(F)C(F)(F)C(F)(F)C(F)(F)C(F)(F)C(F)(F)C(F)(F)C(F)(F)C(F)(F)C(F)(F)C(F)(F)F [Perfluorotetradecanoic acid]
Protocol: as §1

[4] = compound: O=C(O)CCC(F)(F)C(F)(F)C(F)(F)C(F)(F)C(F)(F)F [2H,2H,3H,3H-Perfluorooctanoic acid]
Protocol: as §1

[5] = compound: O=S(=O)(O)C(F)(F)C(F)(F)C(F)(F)C(F)(F)F [Perfluorobutanesulfonic acid]
Protocol: as §1

1H,1H-Heptafluorobutanol = compound: OCC(F)(F)C(F)(F)C(F)(F)F [1H,1H-Heptafluorobutanol]
Protocol: as §1

MyoF:Collagen IV
level (log10) ([1]; 6700 nM): -0.0345 ± 0.021
level (log10) ([1]; 20000 nM): -0.0295 ± 0.0092
level (log10) ([1]; 60000 nM): 0.0005 ± 0.0021
level (log10) ([2]; 6700 nM): 0.027 ± 0.0042
level (log10) ([2]; 20000 nM): 0.082 ± 0.018
level (log10) (Perfluorooctanamide; 6700 nM): -0.0335 ± 0.026
level (log10) (Perfluorooctanamide; 20000 nM): -0.0345 ± 0.042
level (log10) (Perfluorooctanamide; 60000 nM): -0.079 ± 0.064
level (log10) ([3]; 6700 nM): -0.002 ± 0.0071
level (log10) ([3]; 20000 nM): 0.023 ± 0.016
level (log10) ([4]; 6700 nM): -0.009 ± 0.021
level (log10) ([4]; 20000 nM): -0.0075 ± 0.026
level (log10) ([4]; 60000 nM): 0.0115 ± 0.023
level (log10) ([5]; 6700 nM): 0.04 ± 0.0057
level (log10) ([5]; 20000 nM): 0.0055 ± 0.033
level (log10) ([5]; 60000 nM): 0.016 ± 0.013
level (log10) (1H,1H-Heptafluorobutanol; 6700 nM): -0.0305 ± 0.025
level (log10) (1H,1H-Heptafluorobutanol; 20000 nM): -0.037 ± 0.033
level (log10) (1H,1H-Heptafluorobutanol; 60000 nM): -0.029 ± 0.0071

MyoF:Decorin
level (log10) ([1]; 6700 nM): 0.0195 ± 0.059
level (log10) ([1]; 20000 nM): 0.018 ± 0.03
level (log10) ([1]; 60000 nM): 0.0365 ± 0.021
level (log10) ([2]; 6700 nM): 0.014 ± 0.0042
level (log10) ([2]; 20000 nM): 0.038 ± 0.05
level (log10) (Perfluorooctanamide; 6700 nM): -0.0145 ± 0.05
level (log10) (Perfluorooctanamide; 20000 nM): 0.027 ± 0.078
level (log10) (Perfluorooctanamide; 60000 nM): 0.0305 ± 0.04
level (log10) ([3]; 6700 nM): 0.033 ± 0.027
level (log10) ([3]; 20000 nM): 0.0515 ± 0.026
level (log10) ([4]; 6700 nM): -0.0075 ± 0.0021
level (log10) ([4]; 20000 nM): -0.0065 ± 0.00071
level (log10) ([4]; 60000 nM): 0.019 ± 0.0071
level (log10) ([5]; 6700 nM): 0.0315 ± 0.012
level (log10) ([5]; 20000 nM): 0.03 ± 0.016
level (log10) ([5]; 60000 nM): 0.083 ± 0.013
level (log10) (1H,1H-Heptafluorobutanol; 6700 nM): 0.0055 ± 0.0064
level (log10) (1H,1H-Heptafluorobutanol; 20000 nM): 0.013 ± 0.016
level (log10) (1H,1H-Heptafluorobutanol; 60000 nM): 0.02 ± 0.03

MyoF:MMP-1
level (log10) ([1]; 6700 nM): -0.036 ± 0.013
level (log10) ([1]; 20000 nM): -0.0255 ± 0.025
level (log10) ([1]; 60000 nM): 0.025 ± 0.058
level (log10) ([2]; 6700 nM): -0.012 ± 0.013
level (log10) ([2]; 20000 nM): -0.0145 ± 0.025
level (log10) (Perfluorooctanamide; 6700 nM): -0.0075 ± 0.011
level (log10) (Perfluorooctanamide; 20000 nM): -0.013 ± 0.04
level (log10) (Perfluorooctanamide; 60000 nM): -0.0045 ± 0.026
level (log10) ([3]; 6700 nM): -0.0305 ± 0.015
level (log10) ([3]; 20000 nM): 0.002 ± 0.017
level (log10) ([4]; 6700 nM): -0.017 ± 0.041
level (log10) ([4]; 20000 nM): -0.044 ± 0.0099
level (log10) ([4]; 60000 nM): -0.007 ± 0.033
level (log10) ([5]; 6700 nM): 0.0385 ± 0.005
level (log10) ([5]; 20000 nM): 0.065 ± 0.0071
level (log10) ([5]; 60000 nM): 0.0885 ± 0.0035
level (log10) (1H,1H-Heptafluorobutanol; 6700 nM): -0.031 ± 0.0057
level (log10) (1H,1H-Heptafluorobutanol; 20000 nM): -0.019 ± 0.011
level (log10) (1H,1H-Heptafluorobutanol; 60000 nM): 0.012 ± 0.081

MyoF:PAI-I
level (log10) ([1]; 6700 nM): 0.009 ± 0.016
level (log10) ([1]; 20000 nM): 0.009 ± 0.024
level (log10) ([1]; 60000 nM): 0.0195 ± 0.018
level (log10) ([2]; 6700 nM): -0.002 ± 0.02
level (log10) ([2]; 20000 nM): -0.0025 ± 0.0035
level (log10) (Perfluorooctanamide; 6700 nM): -0.009
level (log10) (Perfluorooctanamide; 20000 nM): -0.014 ± 0.0071
level (log10) (Perfluorooctanamide; 60000 nM): 0.005 ± 0.0014
level (log10) ([3]; 6700 nM): 0.0115 ± 0.0064
level (log10) ([3]; 20000 nM): 0.006
level (log10) ([4]; 6700 nM): -0.009 ± 0.0028
level (log10) ([4]; 20000 nM): -0.0155 ± 0.005
level (log10) ([4]; 60000 nM): -0.0025 ± 0.005
level (log10) ([5]; 6700 nM): -0.011 ± 0.013
level (log10) ([5]; 20000 nM): 0.0065 ± 0.0078
level (log10) ([5]; 60000 nM): 0.0005 ± 0.0064
level (log10) (1H,1H-Heptafluorobutanol; 6700 nM): 0.0065 ± 0.0035
level (log10) (1H,1H-Heptafluorobutanol; 20000 nM): 0.002 ± 0.0071
level (log10) (1H,1H-Heptafluorobutanol; 60000 nM): -0.001

MyoF:SRB
level (log10) ([1]; 6700 nM): -0.0015 ± 0.0064
level (log10) ([1]; 20000 nM): -0.0085 ± 0.012
level (log10) ([1]; 60000 nM): -0.002 ± 0.0057
level (log10) ([2]; 6700 nM): 0.016 ± 0.0014
level (log10) ([2]; 20000 nM): 0.0325 ± 0.0021
level (log10) (Perfluorooctanamide; 6700 nM): -0.006 ± 0.0042
level (log10) (Perfluorooctanamide; 20000 nM): 0.0045 ± 0.012
level (log10) (Perfluorooctanamide; 60000 nM): -0.0055 ± 0.011
level (log10) ([3]; 6700 nM): 0.0025 ± 0.0021
level (log10) ([3]; 20000 nM): 0.0055 ± 0.0078
level (log10) ([4]; 6700 nM): -0.002 ± 0.0057
level (log10) ([4]; 20000 nM): -0.0035 ± 0.0064
level (log10) ([4]; 60000 nM): -0.0065 ± 0.015
level (log10) ([5]; 6700 nM): -0.002 ± 0.0071
level (log10) ([5]; 20000 nM): -0.0035 ± 0.00071
level (log10) ([5]; 60000 nM): 0.0085 ± 0.00071
level (log10) (1H,1H-Heptafluorobutanol; 6700 nM): 0.0015 ± 0.00071
level (log10) (1H,1H-Heptafluorobutanol; 20000 nM): -0.004 ± 0.0028
level (log10) (1H,1H-Heptafluorobutanol; 60000 nM): -0.004 ± 0.0057
